Data taken from US20190201721A1, “ORAL CARE PRODUCTS AND METHODS COMPRISING HYDROXYAPATITE BINDING PROTEINS” (BASF SE, priority 2015, published 2019).

B1: AFP4-His6 (protein)
chain: MRFIVSLLAFTAAATATALPASAAKNAKLATSAAFAKQAEGTTCNVGSIACCNSPAETNNDSLLSGLLGAGLLNGLSGNTGSACAKASLIDQLGLLALVDHTEEGPVCKNIVACCPEGTTNCVAVDNAGAGTKAE
modifications: His6 tag
B2: IPTLPSS-GGG-AFP4-His6 (protein)
chain: MKFSIAAAVVAFAASVAALPPAHDSQFAGNGVGNKGNSNVKFPVPENVTVKQASDKCGDQAQLSCCNKATYAGDTTTVDEGLLSGALSGLIGAGSGAEGLGLFDQCSKLDVAVLIGIQDLVNQKCKQNIACCQNSPSSADGNLIGVGLPCVALGSIL
notes: fusion of HABP peptide IPTLPSS via GGG spacer to antifreeze protein AFP4-His6

System: not listed separately
Assay: Binding assay of carboxyfluorescein-labeled peptides/proteins to hydroxyapatite powder
Conditions: 2 μM N-terminal labeled peptide/protein, 10 mg hydroxyapatite powder, HBS-T buffer, 2 h, 37° C.
Experimental: i. Petide/Protein Labeling For binding studies 5(6)-carboxyfluorescein was conjugated to the N-terminus of the peptides/proteins by using the corresponding succinimidyl ester (Invitrogen, Darmstadt, Germany). The labeling reaction was performed according to the manufactures protocol (Invitrogen, Darmstadt, Germany). After conjugation, the labeled peptide/protein was purified either with a PD-10 desalting column for proteins larger than 5 kDa or a PD MidiTrap G-10 for smaller proteins (GE Healthcare, Buckinghamshire, UK) or for peptides by HPLC on RP18 column. ii. Peptide/Protein Binding For the binding experiments N-terminal labeled peptides/proteins were used in a final concentration of 2 μM. The binding was carried out in HBS-T buffer (150 mM NaCl, 50 mM HEPES pH 7.5, 0.1% Tween 20). The peptides/proteins were exposed to 10 mg hydroxyapatite powder (Fluke) for 2 h at 37° C. After five wash steps with HBS-T buffer the bound peptide/protein was visualized by fluorescence microscopy with the appropriate filters (excitation 475/50; emission 525/50). To quantify the binding, the fluorescence intensity of the solution before (Fi) and after (Ff) binding was measured with a Fluostar Galaxy (BMG, Ortenberg, Germany) and the amount of bound peptide/protein was estimated (cbound=[1−(Ff/Fi)]×c0). The peptide LIKHILHRL, which was described as a non-binding peptide to hydroxyapatite, was used as a negative control [Yarbrough D K, Hagerman E, Eckert R, He J, Choi H, Cao N, et al. Specific binding and mineralization of calcified surfaces by small peptides. Calcif Tissue Int 2010; 86(1):58-66.]. All binding experiments were carried out as triplicates. Evaluation: +: 30-50% bound peptide on HAP; ++: 50-100% bound peptide on HAP
In the case of B1, the “bound peptide on HAP” value is reported as “(35%)”. With B2 the “bound peptide on HAP” value was “(60%)”.

Same assay, conditions: 2 μM N-terminal labeled peptide/protein, 10 mg hydroxyapatite powder, HBS-T buffer, 2 h, 37° C., triplicates
For YPVTPSI [SEQ ID NO: 6], the “bound peptide on HAP (evaluation class)” value was “+ (+: 30-50% bound peptide on HAP)”. With IDDYTRA [SEQ ID NO: 1] the “bound peptide on HAP (evaluation class)” value was “++ (++: 50-100% bound peptide on HAP)”. For RILITIP [SEQ ID NO: 10], the “bound peptide on HAP (evaluation class)” value was “+ (+: 30-50% bound peptide on HAP)”. In the case of SPSTHWK [SEQ ID NO: 3], the “bound peptide on HAP (evaluation class)” value is reported as “+ (+: 30-50% bound peptide on HAP)”. For IPITNLR [SEQ ID NO: 11], the “bound peptide on HAP (evaluation class)” value was “+ (+: 30-50% bound peptide on HAP)”. In the case of GKVQAQS [SEQ ID NO: 5], the “bound peptide on HAP (evaluation class)” value is reported as “+ (+: 30-50% bound peptide on HAP)”. For SWGTQTD [SEQ ID NO: 15], the “bound peptide on HAP (evaluation class)” value was “+ (+: 30-50% bound peptide on HAP)”. With GSPATAA [SEQ ID NO: 4] the “bound peptide on HAP (evaluation class)” value was “+ (+: 30-50% bound peptide on HAP)”. With IPTLPSS [SEQ ID NO: 7] the “bound peptide on HAP (evaluation class)” value was “++ (++: 50-100% bound peptide on HAP)”. With HPPLHHA [SEQ ID NO: 2] the “bound peptide on HAP (evaluation class)” value was “+ (+: 30-50% bound peptide on HAP)”. With EHITTSN [SEQ ID NO: 9] the “bound peptide on HAP (evaluation class)” value was “+ (+: 30-50% bound peptide on HAP)”. For MQTVEVT [SEQ ID NO: 14], the “bound peptide on HAP (evaluation class)” value was “+ (+: 30-50% bound peptide on HAP)”. With NERALTL [SEQ ID NO: 13] the “bound peptide on HAP (evaluation class)” value was “+ (+: 30-50% bound peptide on HAP)”. With TLPASSV [SEQ ID NO: 16] the “bound peptide on HAP (evaluation class)” value was “++ (++: 50-100% bound peptide on HAP)”. In the case of YQGASEN [SEQ ID NO: 8], the “bound peptide on HAP (evaluation class)” value is reported as “++ (++: 50-100% bound peptide on HAP)”. For TTSTRHI [SEQ ID NO: 12], the “bound peptide on HAP (evaluation class)” value was “+ (+: 30-50% bound peptide on HAP)”. With B1 the “bound peptide on HAP (evaluation class)” value was “+ (+: 30-50% bound peptide on HAP)”. For B2, the “bound peptide on HAP (evaluation class)” value was “++ (++: 50-100% bound peptide on HAP)”.

Molecular target: T1, human TRPM8 receptor (Homo sapiens, UniProt Q7Z2W7)
T1 construct: expressed in transfected cells; host or cells: HEK293-TRPM8 (transformed HEK cells, tetracycline-inducible expression)
T1 sequence (Q7Z2W7 whole entry): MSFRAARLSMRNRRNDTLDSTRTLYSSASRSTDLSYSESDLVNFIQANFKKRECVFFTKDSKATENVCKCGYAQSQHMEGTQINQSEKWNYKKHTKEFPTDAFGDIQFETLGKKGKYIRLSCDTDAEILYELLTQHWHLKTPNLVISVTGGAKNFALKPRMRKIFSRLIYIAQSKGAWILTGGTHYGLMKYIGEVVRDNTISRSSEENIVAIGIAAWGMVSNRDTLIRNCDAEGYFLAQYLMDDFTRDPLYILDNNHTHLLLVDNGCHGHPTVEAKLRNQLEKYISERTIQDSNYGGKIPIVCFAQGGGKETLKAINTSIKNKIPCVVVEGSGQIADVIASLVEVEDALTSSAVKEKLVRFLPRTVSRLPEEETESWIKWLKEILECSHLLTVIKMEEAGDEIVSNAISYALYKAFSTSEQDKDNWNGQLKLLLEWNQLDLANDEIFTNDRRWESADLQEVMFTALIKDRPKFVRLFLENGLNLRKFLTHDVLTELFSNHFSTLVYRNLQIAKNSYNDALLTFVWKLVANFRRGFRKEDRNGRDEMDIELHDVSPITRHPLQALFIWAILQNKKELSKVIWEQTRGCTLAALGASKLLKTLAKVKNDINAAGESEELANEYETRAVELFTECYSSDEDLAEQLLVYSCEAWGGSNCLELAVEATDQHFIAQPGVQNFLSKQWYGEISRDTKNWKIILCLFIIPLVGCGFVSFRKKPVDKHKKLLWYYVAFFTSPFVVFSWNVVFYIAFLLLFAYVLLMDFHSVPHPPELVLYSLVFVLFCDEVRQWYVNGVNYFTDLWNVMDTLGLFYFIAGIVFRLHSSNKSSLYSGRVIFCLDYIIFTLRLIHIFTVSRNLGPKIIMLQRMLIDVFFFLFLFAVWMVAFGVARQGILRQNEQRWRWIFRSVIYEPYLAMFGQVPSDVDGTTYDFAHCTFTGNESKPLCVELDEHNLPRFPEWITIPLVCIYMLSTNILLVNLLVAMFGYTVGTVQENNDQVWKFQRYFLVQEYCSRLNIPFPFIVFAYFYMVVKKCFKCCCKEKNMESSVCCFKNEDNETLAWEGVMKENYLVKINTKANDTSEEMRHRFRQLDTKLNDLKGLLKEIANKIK
Assay: Assay on TRPM8 activation (HEK293-TRPM8 cells, Ca2+-sensitive dye Fluo-4)
Assay type: cell-based
Conditions: before and after incubation with saliva
Experimental: The HABP peptide—cooling compound-hybrid molecules of example 4 (1 μM in Tris buffer pH 8) were incubated with pooled human saliva (5 donors) 1:1 or as reference 1:1 in Tris buffer pH 8; 37° C., for 2 hrs at 37° C. Samples were frozen until evaluation in a cell based assay for activation of the human TRPM8 receptor.
The agonisation or antagonisation of the receptor was quantified by means of a Ca^2+-sensitive dye (e.g. FURA, Fluo-4, etc.). […] To begin with, in a manner known per se, in cell culture flasks a fresh culture of transformed HEK cells was prepared. […] Addition of the test samples in quantities of 50 μl/well and measurement of the change in fluorescence (e.g. in the FLIPR assay device, Molecular Devices or NovoStar, BMG) at 485 nm excitation, 520 nm emission, and evaluation of the effective strength of the various substances/concentrations and determination of the EC50 values.
With `CC1CCC(C(C)C)C(O)C1` (centres unmarked) [menthol] the “bioactivity on the human cool receptor TRPM8” value was “bioactive”.

System: not listed separately
Assay: Binding to and release from calcium phosphate discs (HA-discs) after saliva incubation
Conditions: read out by TRPM8 activation of the supernatant
Experimental: The hybrid molecules of example 4 (5 μM in Tris buffer pH 8) were incubated with calcium phosphate discs (HA-discs from Himed) at 37° C. for 1 hr. Unbound molecules were removed by washing 3-times with Tris buffer. The coated calcium phosphate discs were incubated with buffer as a control and in parallel with pooled human saliva (5 donors; 37° C., for 2 hrs). The supernatant was centrifuged and evaluated for cooling activity by specific activation of human cool receptor TRPM8.
The agonisation or antagonisation of the receptor was quantified by means of a Ca^2+-sensitive dye (e.g. FURA, Fluo-4, etc.). Agonists on their own bring about an increase in the Ca^2+-signal; antagonists in the presence of, for example, menthol bring about a reduction in the Ca^2+-signal (in each case detected by means of the Fluo-4 dye, which due to the Ca^2+ has other fluorescent properties). To begin with, in a manner known per se, in cell culture flasks a fresh culture of transformed HEK cells was prepared. […] Addition of the test samples in quantities of 50 μl/well and measurement of the change in fluorescence (e.g. in the FLIPR assay device, Molecular Devices or NovoStar, BMG) at 485 nm excitation, 520 nm emission, and evaluation of the effective strength of the various substances/concentrations and determination of the EC50 values. […]
In the case of `CC1CCC(C(C)C)C(O)C1` (centres unmarked) [menthol], the “bound on hydroxyapatite / released after incubation with human saliva” value is reported as “nothing is bound on hydroxyapatite”.

System: not given
Assay: not given
Conditions: described by Yarbrough et al. 2010; used as negative control; cited from earlier work
For LIKHILHRL, the “binding to hydroxyapatite as described in literature” value is listed as “non-binding”.
